Measured values reported in the supplement of paper PMC10307832.

What was measured:
Experiment in all cases: relative viability (nuclei count vs DMSO), 5 days (fraction); higher = more cells survive
Alpelisib + Phenformin = compound: Cc1nc(NC(=O)N2CCC[C@H]2C(N)=O)sc1-c1ccnc(C(C)(C)C(F)(F)F)c1 [Alpelisib] + N=C(N)NC(=N)NCCc1ccccc1 [Phenformin] (partner 250 µM)
Outline: (§1)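 Nuclei were stained with Hoechst during a one-step fixation (final 0.05% Triton X-100, 1% formaldehyde, 1 ug/ml Hoechst) carried out 5 days after dosing, then counted on 4× images. The cells, lung cancer lines in 1536-well plates, had been dosed by pin tool the day after seeding with one drug alone or a fixed anchor-drug dose plus five library-drug doses (not always all listed) in √10 steps. Relative viability is the nuclei count in treated wells divided by that in vehicle wells, and each value is the median of duplicate plates.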

OSI-027 + Linsitinib = compound: COc1cccc2cc(-c3nc([C@H]4CC[C@H](C(=O)O)CC4)n4ncnc(N)c34)[nH]c12 [OSI-027] + C[C@]1(O)C[C@@H](c2nc(-c3ccc4ccc(-c5ccccc5)nc4c3)c3c(N)nccn32)C1 [Linsitinib] (partner 1 µM)
Outline: as §1

Alpelisib + OSI-027 = compound: Cc1nc(NC(=O)N2CCC[C@H]2C(N)=O)sc1-c1ccnc(C(C)(C)C(F)(F)F)c1 [Alpelisib] + COc1cccc2cc(-c3nc([C@H]4CC[C@H](C(=O)O)CC4)n4ncnc(N)c34)[nH]c12 [OSI-027] (partner 0.5 µM)
Outline: as §1

Vemurafenib + Linsitinib = compound: CCCS(=O)(=O)Nc1ccc(F)c(C(=O)c2c[nH]c3ncc(-c4ccc(Cl)cc4)cc23)c1F [Vemurafenib] + C[C@]1(O)C[C@@H](c2nc(-c3ccc4ccc(-c5ccccc5)nc4c3)c3c(N)nccn32)C1 [Linsitinib] (partner 1 µM)
Outline: as §1

Cell Line | relative viability (Alpelisib + Phenformin; first compound 0.04 µM) | relative viability (Alpelisib + Phenformin; first compound 0.1265 µM) | relative viability (Alpelisib + Phenformin; first compound 0.4 µM) | relative viability (Alpelisib + Phenformin; first compound 1.265 µM) | relative viability (Alpelisib + Phenformin; first compound 4 µM) | relative viability (OSI-027 + Linsitinib; first compound 0.01 µM) | relative viability (OSI-027 + Linsitinib; first compound 0.03162 µM) | relative viability (OSI-027 + Linsitinib; first compound 0.1 µM) | relative viability (OSI-027 + Linsitinib; first compound 0.3162 µM) | relative viability (OSI-027 + Linsitinib; first compound 1 µM) | relative viability (Alpelisib + OSI-027; first compound 0.04 µM) | relative viability (Alpelisib + OSI-027; first compound 0.1265 µM) | relative viability (Alpelisib + OSI-027; first compound 0.4 µM) | relative viability (Alpelisib + OSI-027; first compound 1.265 µM) | relative viability (Alpelisib + OSI-027; first compound 4 µM) | relative viability (Vemurafenib + Linsitinib; first compound 0.03162 µM) | relative viability (Vemurafenib + Linsitinib; first compound 0.3162 µM) | relative viability (Vemurafenib + Linsitinib; first compound 1 µM) | relative viability (Vemurafenib + Linsitinib; first compound 0.1 µM)
PC-14 | 0.653 | 0.406 | 0.67 | 0.54 | 0.526 | 0.944 | 0.946 | 0.891 | 0.914 | 0.582 | 0.865 | 0.83 | 0.985 | 0.574 | 0.467 | 0.93 | 0.922 | 0.995 | 
RERF-LC-KJ | 0.427 | 0.394 | 0.433 | 0.345 | 0.33 | 0.839 | 0.776 | 0.655 | 0.503 | 0.376 | 0.482 | 0.547 | 0.507 | 0.393 | 0.347 | 0.833 | 0.924 | 0.923 | 0.86
SK-LU-1 | 0.495 | 0.498 | 0.434 | 0.408 | 0.358 | 1.06 | 0.83 | 0.63 | 0.406 | 0.306 | 0.378 | 0.297 | 0.29 | 0.219 | 0.201 | 0.93 | 0.915 | 1.03 | 0.958
SK-MES-1 | 0.662 | 0.635 | 0.755 | 0.608 | 0.675 | 1.01 | 0.956 | 0.911 | 0.737 | 0.538 | 0.57 | 0.541 | 0.553 | 0.442 | 0.351 | 1.06 | 1.03 | 1.07 | 0.892
SW 1573 | 0.306 | 0.335 | 0.272 | 0.217 | 0.257 | 0.777 | 0.712 | 0.771 | 0.586 | 0.462 | 0.661 | 0.438 | 0.571 | 0.404 | 0.337 | 0.791 | 0.935 | 0.795 | 0.886
